Here are results for 92 compounds from PubChem BioAssay AID1902 (Broad Institute, 2009).

Molecules are shown by their SMILES. pEC50: −log10 of the molar value. Several values for one entry are separate records, joined by “and”; a condition that tells them apart may be missing. Equal values may be shown once. Activity calls are given as the source filed them.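 How the source made its calls: active means EC50 no more than a set limit of log units above the highest dose; inactive means the rest.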

In the experiment the target is S. pyogenes SKKanGAS, kanamycin survival, BacTiterGlo, 6 h. Put plainly: S. pyogenes SKKanGAS kanamycin growth inhibitors – SKKanGAS strain, luminescence, dose confirmation, streptokinase promoter inhibitor project, dose response (AID 1902).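 Further: lower survival reflects blocked streptokinase promoter driving kanamycin resistance gene.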
With `C/C(=N\NC(=O)c1cc2ccccc2cc1O)c1ccc2c(c1)OCO2`, the pEC50 was 5.66.
As to `O=C1c2ccccc2C(=O)c2[nH]c(=O)[nH]c21`, the pEC50 was 5.04.
For `O=S(=O)(Nc1ccc(-c2csc(-c3ccccc3)n2)cc1)c1ccc(F)cc1`, the pEC50 is 5.72.
Take `CCCOc1ccc(/C(O)=C2/C(=O)C(=O)N(c3ccccn3)C2c2ccc(OC)cc2)cc1C` (configuration not stated): the pEC50 is 5.20.
Turning to `O=C(NC(=S)N1CCN(c2ccc(Cl)cc2[N+](=O)[O-])CC1)c1cccs1`, the pEC50 is 5.56.
As to `Cc1ccc(Nc2cc(C)nn2-c2nc(C)cc(C)n2)cc1`, the pEC50 is 5.19.
Same read-out and setting: the value for `Cc1ccc(C)c(C(=O)COC(=O)c2cc(Cl)nc3ccccc23)c1` was 4.96; that for `O=C(Nc1ccc(OC(F)F)cc1)Nc1cccc(C(F)(F)F)c1` was 5.17.
Consider `COc1ccc2c(c1)[nH]c1c(=O)n(CCc3cnc[nH]3)cnc12`, for which the EC50 was > 15 µM (inactive).
Take `N#CC1=C(N)OC2=C(CCc3ccccc32)C1c1ccccc1Cl` (configuration not stated): the pEC50 was 5.42.
Consider `CCOC(=O)c1cc(-c2ccc(OC(F)F)cc2)nc2c1c(=O)[nH]c(=O)n2C`, for which the pEC50 was 6.41.
The same measure, in the same setting: the figure for `Cc1cnc(NC(=O)c2cc3c(C)nn(-c4ccccc4)c3s2)s1` is 6.08.
With `COC(=O)[C@H]1[C@H](CCc2ccccc2)NC(=O)N(Cc2ccccc2)[C@@H]1C`, the EC50 is > 15 µM (inactive).
As for `CCCn1c(NC(=O)c2ccccc2Br)nc2ccccc21`, the pEC50 is 5.25.
Take `COc1ccc2nc(Nc3nc4cc5c(cc4s3)OCO5)sc2c1`: the pEC50 is 5.99.
Turning to `Cc1nn(CC(=O)Nc2c(F)c(F)cc(F)c2F)c(=O)c2cccn12`, the EC50 was > 15 µM (inactive).
For `O=C(Nc1cccc(Cl)c1N1CCCCC1)c1ccc2c(c1)OCCO2`, the pEC50 was 4.98.
As to `O=[N+]([O-])c1ccc(/C=N/NC(=S)Nc2ccc(Cl)cc2Cl)s1`, the pEC50 was 5.76.
As for `Nc1nc(-c2ccccn2)nc(N)c1Cc1ccccc1F`, the pEC50 is 4.81.
In the case of `O=C(NNC(=O)c1ccccc1OCc1ccccc1Cl)c1csc(N2CCOCC2)n1`, the pEC50 is 5.30.
In the case of `CCN(CC(=O)NC(C)(C)C)C(=O)COc1c(Cl)cc(Cl)c2ccc(C)nc12`, the pEC50 was 6.30.
With `O=C(NC12CC3CC(CC(C3)C1)C2)c1ccc(-c2ccc(Br)cc2)o1`, the negative-log EC50 (pEC50) was 4.96.
`O=C(/C=C/c1ccco1)Oc1cc(Br)cc(/C=N/NC(=O)c2ccccc2O)c1`: the pEC50 is 5.96.
As to `Cc1ccc(S(=O)(=O)N2CCCCC2)cc1NC(=O)CN1C(=O)CN(C)C1=O`, the EC50 is > 15 µM (inactive).
With `Oc1[nH]c2ccc(Br)cc2c1N=NC(=S)Nc1ccc(F)cc1`, the negative logarithm of the EC50 (pEC50) is 6.94.
For the compound `CCC(NC(=O)Nc1nnc(C(F)(F)F)s1)(C(F)(F)F)C(F)(F)F`, the pEC50 was 5.85.
On the same count and under the same terms, the figure for `CC1(C)N=C(N)N=C(N)N1c1ccccc1` is 6.49.
On to `COc1ccc(C(=O)NC(=S)NNC(=O)c2c(-c3ccccc3)noc2C)cc1OC`, for which the pEC50 is 6.30.
Take `COc1ccc(NC(=O)c2cc3cccc(OC)c3oc2=Nc2ccc(C(=O)O)cc2)cc1OC`: the pEC50 is 5.68.
On the same count and under the same terms, the figure for `CC1CC(C)CN(S(=O)(=O)c2ccc(C(=O)Nc3nnc(C4CC4)o3)cc2)C1` (configuration not stated) is 5.99; for `COc1ccc(C(=O)NC(=S)N(Cc2ccccc2)Cc2ccccc2)cc1` it is 6.17.
Take `CC1CCN(c2nc3ccccc3nc2C(C#N)C(=O)NC2CCCCC2)CC1` (configuration not stated): the pEC50 was 5.72.
As to `COc1cccc2sc(Nc3nnc(-c4ccc(F)cc4)o3)nc12`, the pEC50 is 6.26.
Same read-out and setting: the value for `Cc1ccc(Sc2cc(C)nc(-c3ccccn3)n2)cc1` was 4.91.
Take `FC(F)(F)c1cccc(NC(=S)N2CCCC2)c1`: the EC50 is > 15 µM (inactive).
`O=C(Nc1nnc(-c2ccco2)o1)c1ccc(Cl)cc1`: the negative-log EC50 (pEC50) was 5.92.
The same measure, in the same setting: the figure for `O=C(Nc1ccccc1C(=O)O)c1cccc(NC(=O)c2ccc(Br)o2)c1` is 5.30.
As for `Oc1cccc(NC(=S)N=Nc2c(O)[nH]c3ccc(Br)cc23)c1`, the pEC50 is 5.63.
As to `O=c1c2c(nc3c(-c4ccc(Cl)cc4)c[nH]n13)CCCC2`, the pEC50 was 5.34.
The same measure, in the same setting: the figure for `CCOc1ccc(-c2csc(/C(C#N)=C\c3ccc(O)c([N+](=O)[O-])c3)n2)cc1` is 5.70; for `Cn1ncc2c(Nc3cccc(Cl)c3)nc(Nc3cccc(Cl)c3)nc21` it is 5.57.
Same read-out and setting: the figure for `O=C(COC(=O)c1ccccc1Br)Nc1nnc(-c2ccccc2)o1` is 6.16; for `CC1CC(C)CN(c2ncc3c(n2)CC(c2ccccc2Cl)CC3=O)C1` (configuration not stated) it is 5.36.
`Fc1ccc(Br)cc1C1C=C(c2ccc(Br)s2)Nc2ncnn21` (configuration not stated): the pEC50 was 5.19.
Regarding `COc1ccc(CNCC(O)(c2ccc(Cl)cc2)c2ccc(Cl)cc2)cc1`, the pEC50 was 5.45.
As to `O=C(COC(=O)c1ccccc1)Nc1ccccc1Sc1ccccc1`, the pEC50 is 5.05.
Take `COc1ccc(C2/C=C\CN(C(=O)c3ccccc3)CC(=O)N2Cc2ccc(F)cc2)cc1` (configuration not stated): the EC50 is > 15 µM (inactive).
Regarding `Cc1ccc(C(=O)Nc2nc(-c3ccccc3)c(-c3ccccc3)o2)cc1`, the pEC50 was 6.27.
Turning to `Cc1cccc(N=Nc2c(C)nn(-c3ccccc3)c2N)c1C`, the pEC50 is 4.93.
Regarding `O=C1c2[nH]nc(-c3ccccc3O)c2C(c2cccc(Cl)c2)N1Cc1ccco1` (configuration not stated), the negative-log EC50 (pEC50) was 5.13.
Consider `COc1cccc(N2C(=O)C3NN=C(C(=O)CN4C(=O)c5ccccc5C4=O)C3C2=O)c1` (configuration not stated), for which the EC50 is > 15 µM (inactive).
As to `CN(C)c1ccnc2c[cH-]cc12.[Fe].c1ccc(-[c-]2[c-](-c3ccccc3)[c-](-c3ccccc3)[c-](-c3ccccc3)[c-]2-c2ccccc2)cc1` (configuration not stated), the pEC50 is 5.71 and 6.25.
The same measure, in the same setting: the figure for `O=C(O)CSCC(=O)N(Cc1ccccc1)c1nc(-c2ccccc2)c(-c2ccccc2)s1` is 5.80; for `CC[C@H]1OC(=O)[C@H](C)[C@@H](O[C@H]2C[C@@](C)(OC)[C@@H](O)[C@H](C)O2)[C@H](C)[C@@H](O[C@@H]2O[C@H](C)C[C@H](N(C)C)[C@H]2O)[C@](C)(O)C[C@@H](C)C(=NOCOCCOC)[C@H](C)[C@@H](O)[C@]1(C)O` it is above 7.22; for `Cc1ccccc1OCC(=O)Nc1ccccc1N1CCCCC1` it is 5.06.
`CCCCCCCn1c(=O)c(C(=O)Nc2cnccn2)c(O)c2ccccc21`: the pEC50 is 5.67.
Same read-out and setting: the figure for `O=C(COc1ccccc1-c1ccccc1)N/N=C/c1ccc2ccccc2c1` is 5.19.
`O=C(CSc1nnc(CNC(=O)c2ccc(F)cc2)o1)NCc1ccccc1`: the EC50 is > 15 µM (inactive).
In the case of `O=C(OCc1ccc(COC(=O)c2ccc(O)cc2)cc1)c1ccc(O)cc1`, the pEC50 was 5.66.
Turning to `Brc1cc2c(cc1C1Nc3ccccc3C3C=CCC31)OCO2` (configuration not stated), the pEC50 is 5.27.
For the compound `c1ccc(-c2nnc(-c3c[nH]c4ccccc34)nc2-c2ccccc2)cc1`, the pEC50 is 5.14.
Take `O=[N+]([O-])c1ccc(-c2cnc(SC(c3ccccc3)c3ccccc3)[nH]2)cc1`: the negative-log EC50 (pEC50) was 4.96.
Take `COc1cccc(NC(=O)Nc2nc(SC(C)(C)C)ns2)c1`: the pEC50 is 5.09.
Consider `Cc1ccc2nc(-c3ccc(N)cc3)sc2c1`, for which the EC50 was > 15 µM (inactive).
For the compound `N/C(=N\N=C/c1ccc(Br)cc1)N/N=C\c1ccc(Br)cc1`, the pEC50 is 5.42.
`Cc1cc(NC(=O)c2c(F)cccc2Cl)n(-c2nc3ccccc3[nH]2)n1`: the pEC50 is 5.09.
With `Cc1ccc(C2CC(c3cccs3)=NN2C(=O)c2ccc(Br)o2)cc1` (configuration not stated), the pEC50 was 5.71.
As to `O=C(COn1nnc2ccc(C(F)(F)F)cc21)Nc1nnc(-c2ccccc2)o1`, the pEC50 was 5.60.
The same measure, in the same setting: the value for `Cc1[nH]c2ccccc2c1C(=O)COC(=O)c1ccc2c(=O)n3c(nc2c1)CCC3` was 5.82; that for `O=C(O)CC/C(=C\c1cc2c(cc1Br)OCO2)c1nc2ccccc2s1` was 4.98.
The same measure, in the same setting: the value for `O=C(N/N=C/c1cc(Cl)cc([N+](=O)[O-])c1O)C(O)(c1ccccc1)c1ccccc1` was 5.47; that for `COC(=O)c1ccc(CN(c2ccc(C(=O)O)c(O)c2)S(=O)(=O)c2ccc(Cl)c([N+](=O)[O-])c2)cc1` was 5.58.
As to `Cc1ccc2nc(NNC(=O)c3ccc(S(=O)(=O)N4CCc5ccccc5C4)cc3)sc2c1`, the pEC50 was 6.10.
On to `NC(N)=N/N=C/c1ccc(N(c2ccccc2)c2ccccc2)cc1`, for which the pEC50 was 5.69.
Regarding `Cc1cccc(NC(=O)c2ccc(S(=O)(=O)N(C)CC3CCCO3)cc2)c1C` (configuration not stated), the EC50 is > 15 µM (inactive).
Consider `CC(C)c1ccc2nc3sc(C(=O)N4CCc5ccccc5C4)c(N)c3cc2c1`, for which the pEC50 was 4.84.
Regarding `Clc1ccc(-c2cc3ccccc3nc2N2CCCC2)cc1`, the pEC50 was 5.29.
Turning to `Clc1cc(CSc2ccccc2)nc(-c2ccccc2)n1`, the pEC50 is 5.05.
In the case of `CCc1oc2ccccc2c1C(=O)c1cc(Br)c(O)c(Br)c1`, the negative logarithm of the EC50 (pEC50) was 5.18.
Take `Cc1ccc(C(=O)C(c2ccccc2)N2Cc3ccccc3C2=N)cc1` (configuration not stated): the pEC50 was 5.24.
Regarding `O=C(c1ccc(O)cc1)c1ccc(C(=O)c2ccc(O)cc2)cc1`, the negative-log EC50 (pEC50) was 5.29.
Consider `CSc1cccc(-c2nnc(NC(=O)c3cccc(N4C(=O)CCC4=O)c3)o2)c1`, for which the pEC50 is 5.69.
In the case of `COc1ccc(N=C2S/C(=C\c3ccc(OC(C)C(=O)O)c(OC)c3)C(=O)N2CCc2c[nH]c3ccccc23)cc1` (configuration not stated), the pEC50 was 5.79.
As to `O=C(Nc1nnc(-c2ccccc2)o1)c1ccc(Cl)cc1`, the negative logarithm of the EC50 (pEC50) is 6.60.
On to `CCSc1nsc(NC(=O)Nc2cccc(F)c2)n1`, for which the negative-log EC50 (pEC50) is 5.12.
On the same count and under the same terms, the figure for `COc1ccc(CNC(=O)Cc2csc(NC(=O)Nc3ccccc3OC)n2)cc1` is 4.82; for `COc1ccc(Cl)cc1C(=O)NNC(=S)NC(=O)c1cc(-c2ccccc2)nc2ccccc12` it is 7.09.
For `O=C(Nc1nc(-c2ccccn2)cs1)c1ncc(Cl)c(Cl)c1Cl`, the pEC50 is 6.11.
For `CC(C)c1ccc(-n2c(O)c(/C=N/NC(=O)c3ccccc3O)c(=O)[nH]c2=S)cc1`, the pEC50 is 5.16.
Take `Oc1nc(Nc2ccc(Cl)cc2Cl)sc1/C=C1\C=Nc2ccccc21`: the pEC50 is 5.76.
Take `Cc1nnc(SCC2=C(C(=O)O)N3C(=O)C(NC(=O)Cn4nc(C(F)F)c(Cl)c4C)C3SC2)s1` (configuration not stated): the pEC50 is above 7.22.
Turning to `CC(Oc1ccc(Cl)cc1Cl)C(=O)NC1=NN(c2ccccc2)C(=O)C1` (configuration not stated), the pEC50 was 5.54.
